Results as given in PMC11898488, “A2A Adenosine Receptor Antagonists and Their Efficacy in Rat Models of Parkinson’s Disease” (Cells, 2025).
“Also recorded” adds a separate entry of the source.

How the values were obtained:
[1] = system: catalepsy induced by haloperidol; assay: Haloperidol-induced catalepsy, vertical grid test; assay type: in vivo, rat; settings: rats; for Effect on catalepsy induced by haloperidol: 5 mg/kg i.p. given 90 min after haloperidol 0.2 mg/kg s.c., 90 min testing period; for Duration of anticataleptic effect: 5 mg/kg i.p., haloperidol 0.2 mg/kg s.c., time after drug administration
Method: Male Sprague Dawley rats (200–300 g, Charles River, Calco, Italy) were housed in groups of 4–6 in standard polycarbonate cages with sawdust bedding and maintained on a 12 h light/dark cycle (lights on at 8:00 am). Food and water were freely available. All experiments were conducted in accordance with the guidelines for animal experimentation of the EU directives (2010/63/EU; L.276; 22 September 2010) and approved by the Committee on Animal Experimentation (CESA; protocol code 29456, 21 March 2012) of the University of Cagliari. Experiments were designed to minimize animal discomfort and to reduce the number of animals used.
Catalepsy was estimated using the vertical grid test. The test was carried out by placing a rat with the four paws on a wire grid (43–25 cm) at an angle of about 70° in respect to the bench surface. Catalepsy was determined by measuring the time in which the rat maintained a given position. The test was terminated when the rat moved one paw or when 90 s had elapsed from the placement of the rat on the grid. Catalepsy assessments were repeated every 10–15 min intervals. […] A2AAR antagonists were injected 90 min after haloperidol administration to evaluate their effects on deeply cataleptic rats. […]
For catalepsy evaluation, the mean and S.E.M. of the seconds of immobility during each test section were calculated. Significant differences between groups were evaluated by one-way analysis of variance (ANOVA) followed by a Newman–Keuls post hoc test.
After 40 min of haloperidol administration (0.2 mg/kg s.c.), a significant catalepsy was induced in rats, which reached its maximum at 60–70 min [18, 24]. Therefore, the administration of the A2AAR antagonists was made 90 min after haloperidol to evaluate their effects on deeply cataleptic rats.

6-OHDA-lesioned rats = assay: Potentiation of L-dopa-induced contralateral rotations in unilaterally 6-OHDA-lesioned rats; assay type: in vivo, rat; settings: 5 mg/kg i.p. with L-dopa 3 mg/kg i.p., turns in 2 h, versus L-dopa alone
Method: Rats (275–300 g) were anesthetized and placed on a David Kopf stereotaxic apparatus (Tujunga, CA, USA) and infused, using a stainless steel cannula, into the left medial forebrain bundle [coordinates A = −2.2, L = +1.5 from bregma, V = −7.9 from the dura, according to the atlas of Pellegrino et al. (1979) [34]] with 6-OHDA (8 μg/4 μL of saline containing 0.05% ascorbic acid). Rats were pretreated with desipramine (10 mg/kg i.p.) to prevent damage to noradrenergic neurons.
Rotational behavior was assessed in hemispherical bowls (50 cm diameter), with sawdust on the floor, in which each rat was connected to an automated rotameter system (Panlab s.l., Barcelona, Spain) capable of detecting the number of full (360°) rotations in both directions (ipsilateral and contralateral to the lesioned hemisphere). Rats were placed in the bowls 30 min before drug administration to acclimatize and extinguish any spontaneous rotational behavior, and both contralateral and homolateral rotations were measured in 10 min blocks for 120 min after drug injection. The total number of contralateral and homolateral rotations (mean ± SEM) in a 2 h testing period were calculated.
Potentiation of L-dopa-induced rotational behavior: two weeks after the unilateral 6-OHDA lesion, rats were screened based on their contralateral rotations in response to L-dopa (50 mg/kg i.p.) + benserazide (30 mg/ kg i.p.). Rats not showing at least 300 contralateral rotations during the 2 h testing period were eliminated from the study. Three days later, rats were administered with a subthreshold dose of L-dopa (3 mg/kg i.p.) + benserazide (6 mg/kg i.p.) in combination with the vehicle or with a dose of 5 mg/kg i.p of 1, 4, or 5. Compounds were administered simultaneously with L-dopa. Benserazide was always injected 30 min before L-dopa.
In the rotational behavior experiments, the mean and S.E.M. of the total number of contralateral rotations were calculated. Significant differences between groups were evaluated by one-way ANOVA followed by a Newman–Keuls post hoc test.

spontaneous motility = assay: Spontaneous motility in rats; assay type: in vivo, rat; settings: for Effect on spontaneous motility: 5 mg/kg i.p.; for Effect on motility at higher doses: 10 and 15 mg/kg
human A2AAR = target: T1, human A2AAR (Homo sapiens, UniProt P29274); assay: GloSensor cAMP assay in CHO cells expressing human A2AAR; assay type: cell-based; settings: for cAMP production when tested alone (agonist behavior): A2AAR transfected CHO cells, compound alone, in comparison with NECA; for IC50: CHO cells expressing hA2AARs, GloSensor cAMP assay, mean ± standard error, read-out: IC50, inhibition of NECA-induced cAMP production
T1 construct: expressed in transfected cells; host or cells: CHO cells, crude membrane fractions
Method: The performed GloSensorÏ cAMP assay is a non-radioactive method that offers a simple and powerful approach to monitor G-protein coupled receptor (GPCR) activity through change in the intracellular cAMP concentration.
Cell culture: CHO cells stably expressing human A2AAR were grown adherently and maintained in Dulbecco’s modified Eagle’s medium with nutrient mixture F12 (DMEM/F12 with phenol red), supplemented with 10% fetal bovine serum (FBS), 100 U mL^−1 penicillin, 100 µg mL^−1 streptomycin, 2.5 µg mL^−1 amphotericin, 1 mM sodium pyruvate and 0.1 mg mL^−1 geneticin (G418), at 37 °C and aerated with 5% CO2:95% […]. Cells were grown to approximately 70–80% confluence, and transient transfection with a plasmid encoding the biosensor was performed.
GloSensorÏ cAMP assay: Cells were harvested in CO2-independent medium and were counted in a Neubauer chamber. The desired number of cells was incubated in equilibration medium containing a 3% v/v GloSensor^TM cAMP reagent stock solution, 10% FBS, and 87% CO2 independent medium. After 2 h of incubation, the cells were dispensed in the wells of a 384-well plate and, when a steady-state basal signal was obtained, the NECA referent agonist or the understudy compounds, at different concentrations, were added. […] The antagonist profile was evaluated by assessing their ability to counteract an agonist-induced increase in cAMP accumulation. The cells were incubated in the reaction medium (10 min at room temperature) with different understudy molecule concentrations and then treated with NECA. After 10 min, various luminescence reads were performed at different incubation times.
Statistical analysis: Responses were expressed as a percentage of the maximal relative luminescence units (RLU). Concentration–response curves were fitted by a nonlinear regression with the Prism 4.0 program (GraphPAD Software, San Diego, CA, USA). To quantify the NECA agonist potency, the EC50 value was calculated. The EC50 value is the concentration of agonists required to produce 50% of the maximum effect. To evaluate the antagonist profile, the IC50 values were determined. The IC50 value is the concentration of antagonists that produces a 50% inhibition of the agonist effect. Each concentration was tested three times in triplicate, and the values are given as the mean ± standard error.

T1 sequence (P29274 whole entry): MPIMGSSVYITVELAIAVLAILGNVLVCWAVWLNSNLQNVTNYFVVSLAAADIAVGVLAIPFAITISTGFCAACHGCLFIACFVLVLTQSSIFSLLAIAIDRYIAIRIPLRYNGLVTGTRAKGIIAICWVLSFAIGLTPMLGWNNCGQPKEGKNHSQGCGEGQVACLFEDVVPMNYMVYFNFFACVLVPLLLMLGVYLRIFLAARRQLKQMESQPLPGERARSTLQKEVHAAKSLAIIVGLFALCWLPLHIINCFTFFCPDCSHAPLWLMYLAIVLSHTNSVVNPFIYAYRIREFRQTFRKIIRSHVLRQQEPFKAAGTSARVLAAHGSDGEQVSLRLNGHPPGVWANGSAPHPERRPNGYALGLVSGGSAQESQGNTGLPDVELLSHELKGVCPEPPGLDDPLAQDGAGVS

Effect on spontaneous motility (spontaneous motility) | Effect on motility at higher doses (spontaneous motility) | IC50 (human A2AAR) [nM] | SMILES | Efficacy on catalepsy, preliminary studies ([1]; 5 mg/kg) | Effect on catalepsy induced by haloperidol [1] | Duration of anticataleptic effect [1] [min] | Efficacy on catalepsy, preliminary studies ([1]; 1 and 3 mg/kg) | Number of contralateral rotations induced by subthreshold L-dopa (6-OHDA-lesioned rats) | cAMP production when tested alone (agonist behavior) (human A2AAR)
did not modify spontaneous motility | caused hypermotility | 278 ± 49 | CCOc1nc2c(N)nc(OCCc3ccccc3)nc2n1CC [Compound 4, 8-ethoxy-9-ethyl-2-phenethoxyadenine] | fully effective | significantly antagonized catalepsy; also recorded: longer duration and a strong intensity | 10 to 90 | low efficacy on catalepsy | significantly increased | not able to stimulate cAMP production; also recorded: no increase in cAMP production was detected
did not modify spontaneous motility | caused hypermotility | 114 ± 25 | CCn1c(I)nc2c(N)nc(OCCc3ccccc3)nc21 [Compound 5, 9-ethyl-8-iodo-2-phenethoxy-9H-purin-6-amine] | fully effective | significantly antagonized catalepsy | ≤ 60 | low efficacy on catalepsy | significantly increased | not able to stimulate cAMP production; also recorded: no increase in cAMP production was detected

SMILES | Effect on spontaneous motility (spontaneous motility) | Effect on motility at higher doses (spontaneous motility) | IC50 (human A2AAR) [nM] | Efficacy on catalepsy, preliminary studies ([1]; 5 mg/kg) | Effect on catalepsy induced by haloperidol [1] | Duration of anticataleptic effect [1] [min] | Efficacy on catalepsy, preliminary studies ([1]; 1 and 3 mg/kg) | Number of contralateral rotations induced by subthreshold L-dopa (6-OHDA-lesioned rats) | cAMP production when tested alone (agonist behavior) (human A2AAR)
CCn1c(Br)nc2c(N)nc(OCCc3ccccc3)nc21 [Compound 1, 8-bromo-9-ethyl-2-phenetoxyadenine] | did not modify spontaneous motility | caused hypermotility | 108 ± 23 | fully effective | significantly antagonized catalepsy | 10 to 90 | low efficacy on catalepsy | did not increase | not able to stimulate cAMP production; also recorded: no increase in cAMP production was detected
